Laboratory results as given in patent publication US20260000601A1, “Anti-Carbonylation Composition And Method Of Protecting Keratin Materials From Carbonylation Stimuli By Using Compositions Including Polylysines” (ELC Management LLC, priority 2022, published 2026).

Tested on: Bovine Serum Albumin (BSA)
Test: In vitro anti-carbonylation efficacy test (acrolein-induced carbonylation of BSA, Protein Carbonyl Assay Kit)
Conditions: BSA + acrolein in PBS, 37° C. overnight; for % inhibition of carbonylation (average): blank = 0%; for Percentage of protein carbonylation level (average): blank = 100%
[1] = agent working concentration 0.005%
[2] = agent working concentration 0.05%

Procedure: This assay provides an in vitro method to determine how an anti-carbonylation agent/composition affects the extent of protein carbonylation. With deionized water, the anti-carbonylation agent/composition to be tested was made into a 1% solution, Bovine Serum Albumin (BSA) was made into a 10 mg/mL solution, and Acrolein was made into a 10 mM solution. Then, in a 1.5 mL centrifuge tube, according to the content in Table 1, BSA (10 mg/mL), anti-carbonylation agent/composition (1%), Acrolein (10 mM) and Phosphate buffer solution (PBS) were added to the centrifuge tube. The sample containing only BSA and PBS served as a baseline, and the sample containing BSA, Acrolein and PBS served as a blank. The final liquid volume in each centrifuge tube was 1.0 mL. Each group contained three replicate samples, and all samples were placed at 37° C. overnight.
The protein carbonyl content in the above samples was detected by using the Protein Carbonyl Assay Kit of Nanjing Jiancheng Bioengineering Institute. The detection methods are as follows: take 0.1 mL of sample into the assay tube, then add 0.4 mL of reagent 3 in the kit, vortex to mix for 1 min, and react at 37° C. for 30 min in the dark. Add 0.5 mL of reagent 5 in the kit, vortex and mix for 1 min, centrifuge at 12,000 r/min for 10 min at 4° C., discard the supernatant, and leave the pellet. Add 1.0 mL of anhydrous ethanol and ethyl acetate (1:1) mixed solution, vortex to mix for 1 min, centrifuge at 12,000 r/min for 10 min at 4° C., discard the supernatant, leave the precipitate, and repeat the above steps four times. Add 1.25 mL of reagent VI in the kit, mix well, place it in 37° C. for 15 min, vortex to mix, dissolve all the precipitates, and centrifuge at 12,000 r/min for 15 minutes. Take the supernatant in a quartz cuvette with a light diameter of 0.5 cm, adjust the zero with reagent six, and measure the absorbance value of each tube at 370 nm (ultraviolet). According to the formula, we can get the protein carbonyl content.
The protein content of the samples was determined using Thermos's Micro BCA™ Protein Assay Kit. First, prepare Diluted Albumin (BSA) Standards (Working Range=20-750 μg/mL). Mix BCA Reagent A with Reagent B (Reagent A:Reagent B=50:1) to prepare working solution. Take 25 μL each of the protein standard at different dilution concentration and the protein sample, add them to the microplate. Add 200 μL of working solution to each well and mix well by shaking on a shaker for 30 s. The microplate was sealed and incubated at 37° C. for 30 min. Cool the microplate to room temperature and measure the absorbance of the sample at a wavelength of 562 nm. The corrected absorbance value is the absorbance value of the blank sample subtracted from the readings of each standard and sample. The protein concentration was read against a standard curve prepared with known amounts of BSA. Referring to the standard curve, according to the corrected absorbance value of each protein sample, read the protein concentration of each sample within the linear range of the standard curve. Calculate the amount of protein in the original sample based on the sample volume and dilution.
The anti-carbonylation capability of each anti-carbonylation agents/composition can be obtained by dividing the carbonylation degree of the sample by the BSA protein content.

Row | Compound | % inhibition of carbonylation (average) [1] | Percentage of protein carbonylation level (average) [1] | % inhibition of carbonylation (average) [2] | Percentage of protein carbonylation level (average) [2]
1 | NCCCC[C@H](N)C(=O)O [L-Lysine] | 21% | 79% | 40% | 60%
2 | Dendritic PL: dendritic polylysine, DendriClear from Lucas Meyer, Mw = 6171 |  | 43% |  | 19%
